Key:
[1] = molecular target: T1, Amine oxidase [flavin-containing] A (Homo sapiens, UniProt P21397); experiment: biochemical
T1 sequence (P21397 whole entry): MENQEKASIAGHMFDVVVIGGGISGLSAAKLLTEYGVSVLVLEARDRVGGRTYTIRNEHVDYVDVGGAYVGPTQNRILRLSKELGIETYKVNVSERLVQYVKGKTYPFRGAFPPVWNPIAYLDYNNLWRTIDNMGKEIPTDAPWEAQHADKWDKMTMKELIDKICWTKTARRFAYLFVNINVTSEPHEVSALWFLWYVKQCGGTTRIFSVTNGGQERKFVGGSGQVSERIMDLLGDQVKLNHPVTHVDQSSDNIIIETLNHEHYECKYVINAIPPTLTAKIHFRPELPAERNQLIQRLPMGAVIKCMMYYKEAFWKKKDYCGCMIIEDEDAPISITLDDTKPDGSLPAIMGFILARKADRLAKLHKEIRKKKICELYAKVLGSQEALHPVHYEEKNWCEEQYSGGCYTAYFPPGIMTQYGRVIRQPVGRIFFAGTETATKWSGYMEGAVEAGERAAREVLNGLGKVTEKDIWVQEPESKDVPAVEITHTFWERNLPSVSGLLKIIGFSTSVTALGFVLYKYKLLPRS

[2] = molecular target: T2, Amine oxidase [flavin-containing] B (Homo sapiens, UniProt P27338); experiment: biochemical; type: cell-based
T2 sequence (P27338 whole entry): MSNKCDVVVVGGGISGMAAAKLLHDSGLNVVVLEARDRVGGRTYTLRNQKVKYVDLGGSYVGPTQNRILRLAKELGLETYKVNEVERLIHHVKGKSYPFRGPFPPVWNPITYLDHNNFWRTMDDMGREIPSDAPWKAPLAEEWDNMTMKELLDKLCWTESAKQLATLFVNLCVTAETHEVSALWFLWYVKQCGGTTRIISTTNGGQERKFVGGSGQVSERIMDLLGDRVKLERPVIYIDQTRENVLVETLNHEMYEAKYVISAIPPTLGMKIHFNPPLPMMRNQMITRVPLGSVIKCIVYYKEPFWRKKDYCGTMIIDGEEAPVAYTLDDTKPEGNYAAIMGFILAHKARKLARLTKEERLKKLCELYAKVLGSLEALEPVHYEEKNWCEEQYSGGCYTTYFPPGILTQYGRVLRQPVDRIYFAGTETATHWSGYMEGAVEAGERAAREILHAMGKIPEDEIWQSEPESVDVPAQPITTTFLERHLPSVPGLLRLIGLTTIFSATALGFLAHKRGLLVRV

[3] = molecular target: T1, Amine oxidase [flavin-containing] A; experiment: Inhibition of human recombinant MAO-A expressed in baculovirus infected BT1 cells at 100 uM
[4] = molecular target: T2, Amine oxidase [flavin-containing] B; experiment: Inhibition of human recombinant MAO-B expressed in baculovirus infected BT1 cells at 1 mM; conditions: 1000 µM

SMILES | IC50 [1] | IC50 [2] | inhibition (INH) [3] | inhibition (INH) [4]
CC(=O)N1N=C(c2ccc(OCC=C(C)C)cc2O)CC1c1ccc(OCc2ccccc2)cc1 (configuration not stated) | 316 nM | 174 nM | – | –
CC(C)=CCOc1ccc(C2=NN(C(N)=S)C(c3ccccc3)C2)c(O)c1 (configuration not stated) | – | 52500 nM | Not Active | –
CC(C)=CCOc1ccc(C2=NN(C(N)=S)C(c3ccc(Cl)cc3)C2)c(O)c1 (configuration not stated) | – | 832 nM | Not Active | –
O=C(NCCN1CCOCC1)c1ccc(Cl)cc1 [MOCLOBEMIDE] | – | – | – | Not Active
